This is an account of results in ChEMBL document CHEMBL1151627, “Antineoplastic agents, 99. Amaryllis belladonna” (1984).

Each structure is given as a SMILES string. Converted amounts (≈) assume the structure as drawn. The source made the active and inactive calls. The rule behind the calls is not given here.

Assay [1] relates to P388. The assay is described as follows: In vivo antitumor activity against mouse P388 cells at 20 mg/kg. The assay is classed as functional.
For assay [2], the system named is P388. Briefly: In vivo antitumor activity against mouse P388 cells at 10 mg/kg. The assay is classed as functional.
Assay [3] has as its system P388. Briefly: Cytotoxicity against mouse P388 cells. Format: functional. The conditions noted are these: read-out: ED50 (the source's name).
For assay [4], the system named is P388. The assay is described as follows: In vivo antitumor activity against mouse P388 cells at 5 to 200 mg/kg. The assay is classed as functional, organism-based.
Assay [5] deals with P388. Briefly: In vivo antitumor activity against mouse P388 cells at 1.25 to 10 mg/kg. Format: functional, organism-based.
Assay [6] has as its system P388. Briefly: In vivo antitumor activity against mouse P388 cells at 75 mg/kg. Format: functional.

For orientation: T/C means the ratio of treated to control.

Consider `[Cl-].c1cc2c3c(c1)c1cc4c(cc1c[n+]3CC2)OCO4` [ANHYDROLYCORINIUM CHLORIDE], for which the T/C was found to be 169% in the assay with P388 [1] and 164% in the assay on P388 [2].
For `CC(=O)O[C@@H]1CC=C2CCN3Cc4cc5c(cc4[C@H]1[C@@H]23)OCO5` [ACETYLCARANINE], in the assay on P388 [3], the EC50 worked out at 0.23 µg/mL (≈ 0.734 µM). The outcome in the assay with P388 [4] was inactive.
As for `COc1c2c(cc3c1OCO3)[C@]13C=C[C@H](OC)C[C@H]1N(C2)C[C@@H]3O` [AMBELLINE], in the assay with P388 [3], the EC50 turned out to be 1.6 µg/mL (≈ 4.83 µM). Also, the result in the assay on P388 [5] was inactive.
In the assay on P388 [6], `O[C@H]1[C@H]2c3cc4c(cc3CN3CCC(=C[C@@H]1O)[C@H]23)OCO4` [LYCORINE] yielded a T/C of 135%.
